Values of other authors in patent publication US20210401968A1 (priority 2018, published 2021).
Like-named read-outs stand apart in the source and are kept apart here.

How the values were obtained:
[1] = target: T1, progesterone receptor-based transactivator (Homo sapiens, UniProt P06401); settings: rats
T1 construct: host or cells: rats (host animal of the cited study)
T1 sequence (P06401 640-891, added parts left off): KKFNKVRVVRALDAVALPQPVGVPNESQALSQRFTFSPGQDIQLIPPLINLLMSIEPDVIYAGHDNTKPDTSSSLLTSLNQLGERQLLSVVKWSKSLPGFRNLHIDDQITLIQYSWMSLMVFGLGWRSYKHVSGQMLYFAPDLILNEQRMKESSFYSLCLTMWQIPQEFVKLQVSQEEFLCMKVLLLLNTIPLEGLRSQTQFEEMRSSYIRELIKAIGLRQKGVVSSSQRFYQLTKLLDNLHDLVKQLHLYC

CC#C[C@]1(O)CC[C@H]2[C@@H]3CCC4=CC(=O)CCC4=C3[C@@H](c3ccc(N(C)C)cc3)C[C@@]21C [mifepristone]
amount giving an effective concentration ([1]; i.p.): 5 µg/kg
amount giving an effective concentration ([1]; orally): about 10 μg/kg
duration of sustained target gene expression after a single heat treatment (luciferase target gene): at least 6 days
target gene expression after heat treatment (luciferase target gene): resulted in activation of target gene expression
